What was measured:
Type in all cases: cell-based
[1] = molecular target: T1, human TLR7 (Homo sapiens, UniProt Q9NYK1); test: TLR7 inhibition reporter assay (HEK-Blue SEAP reporter, gardiquimod stimulation); settings: HEK-Blue cells overexpressing human TLR7, SEAP reporter, gardiquimod 7.5 μM, 22 hour incubation
T1 construct: host or cells: HEK-Blue cells
T1 sequence (Q9NYK1 27-1049): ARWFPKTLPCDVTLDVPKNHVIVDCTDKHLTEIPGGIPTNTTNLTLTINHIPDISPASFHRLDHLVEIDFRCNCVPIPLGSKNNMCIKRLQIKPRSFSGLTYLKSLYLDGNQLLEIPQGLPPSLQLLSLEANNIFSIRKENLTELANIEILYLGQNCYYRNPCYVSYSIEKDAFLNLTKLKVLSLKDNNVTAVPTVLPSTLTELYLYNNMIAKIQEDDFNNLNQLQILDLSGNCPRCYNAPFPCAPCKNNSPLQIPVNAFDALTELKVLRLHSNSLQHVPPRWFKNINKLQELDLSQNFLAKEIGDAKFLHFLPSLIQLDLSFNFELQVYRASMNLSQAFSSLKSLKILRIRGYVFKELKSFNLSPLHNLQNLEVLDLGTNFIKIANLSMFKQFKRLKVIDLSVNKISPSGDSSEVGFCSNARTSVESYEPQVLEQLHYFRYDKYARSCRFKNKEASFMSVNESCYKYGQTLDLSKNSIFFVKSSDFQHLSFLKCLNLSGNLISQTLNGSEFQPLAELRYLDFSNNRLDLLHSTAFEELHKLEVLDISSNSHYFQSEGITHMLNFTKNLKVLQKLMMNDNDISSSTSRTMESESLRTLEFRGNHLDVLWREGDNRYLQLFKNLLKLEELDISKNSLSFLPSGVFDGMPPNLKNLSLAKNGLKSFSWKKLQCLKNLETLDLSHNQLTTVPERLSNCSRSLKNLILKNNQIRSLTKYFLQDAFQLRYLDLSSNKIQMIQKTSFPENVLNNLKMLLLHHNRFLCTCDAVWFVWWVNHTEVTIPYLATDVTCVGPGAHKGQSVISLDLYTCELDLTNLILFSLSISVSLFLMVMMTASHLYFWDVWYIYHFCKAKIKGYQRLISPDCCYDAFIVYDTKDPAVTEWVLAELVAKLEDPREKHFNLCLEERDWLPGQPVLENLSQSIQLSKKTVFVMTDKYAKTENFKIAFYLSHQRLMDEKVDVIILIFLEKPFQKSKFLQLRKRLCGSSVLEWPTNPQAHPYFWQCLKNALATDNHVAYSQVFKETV
Method in brief: (§1)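 Screening used HEK-Blue cells overexpressing one human TLR (7, 8 or 9) and an IFN-β minimal promoter–NF-κB/AP-1 SEAP construct. Stimulation lasted 22 h at 37 °C with receptor-specific agonist: gardiquimod, R848 or ODN2006 at 7.5 μM, 15.9 μM and 5 nM.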

[2] = molecular target: T2, human TLR9 (Homo sapiens, UniProt Q9NR96); test: TLR9 inhibition reporter assay (HEK-Blue SEAP reporter, ODN2006 stimulation); settings: HEK-Blue cells overexpressing human TLR9, SEAP reporter, ODN2006 5 nM, 22 hour incubation
T2 construct: host or cells: HEK-Blue cells
T2 sequence (Q9NR96 26-1032): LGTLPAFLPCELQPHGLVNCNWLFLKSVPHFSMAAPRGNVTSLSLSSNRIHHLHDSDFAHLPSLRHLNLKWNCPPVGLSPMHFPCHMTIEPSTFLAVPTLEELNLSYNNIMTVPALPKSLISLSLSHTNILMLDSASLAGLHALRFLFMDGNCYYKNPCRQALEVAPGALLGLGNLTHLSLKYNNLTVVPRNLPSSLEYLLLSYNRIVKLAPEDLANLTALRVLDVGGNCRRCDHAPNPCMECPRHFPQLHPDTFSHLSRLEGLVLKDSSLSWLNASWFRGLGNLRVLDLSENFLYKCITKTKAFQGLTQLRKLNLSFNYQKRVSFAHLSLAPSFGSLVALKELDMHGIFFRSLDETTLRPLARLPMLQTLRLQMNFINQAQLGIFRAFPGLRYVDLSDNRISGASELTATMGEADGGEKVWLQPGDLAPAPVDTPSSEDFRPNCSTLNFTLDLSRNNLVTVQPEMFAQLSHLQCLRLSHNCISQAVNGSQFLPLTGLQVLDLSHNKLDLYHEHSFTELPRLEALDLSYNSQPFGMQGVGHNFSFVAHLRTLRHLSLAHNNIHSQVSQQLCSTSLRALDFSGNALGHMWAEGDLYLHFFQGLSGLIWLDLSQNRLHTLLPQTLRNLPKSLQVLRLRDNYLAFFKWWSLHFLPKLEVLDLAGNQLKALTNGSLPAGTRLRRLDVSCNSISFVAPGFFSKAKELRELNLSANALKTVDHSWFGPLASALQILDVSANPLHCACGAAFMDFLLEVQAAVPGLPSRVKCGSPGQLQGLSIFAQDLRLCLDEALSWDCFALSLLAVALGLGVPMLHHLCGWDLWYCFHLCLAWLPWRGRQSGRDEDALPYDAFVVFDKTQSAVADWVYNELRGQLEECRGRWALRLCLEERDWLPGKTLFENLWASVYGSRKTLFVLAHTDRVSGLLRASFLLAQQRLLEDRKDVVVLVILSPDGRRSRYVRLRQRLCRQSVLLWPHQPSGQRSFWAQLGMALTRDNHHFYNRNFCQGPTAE
Method in brief: as §1

[3] = molecular target: T3, human TLR8 (Homo sapiens, UniProt Q9NR97); test: TLR8 inhibition reporter assay (HEK-Blue SEAP reporter, R848 stimulation); settings: HEK-Blue cells overexpressing human TLR8, SEAP reporter, R848 15.9 μM, 22 hour incubation
T3 construct: host or cells: HEK-Blue cells
T3 sequence (Q9NR97 27-1041): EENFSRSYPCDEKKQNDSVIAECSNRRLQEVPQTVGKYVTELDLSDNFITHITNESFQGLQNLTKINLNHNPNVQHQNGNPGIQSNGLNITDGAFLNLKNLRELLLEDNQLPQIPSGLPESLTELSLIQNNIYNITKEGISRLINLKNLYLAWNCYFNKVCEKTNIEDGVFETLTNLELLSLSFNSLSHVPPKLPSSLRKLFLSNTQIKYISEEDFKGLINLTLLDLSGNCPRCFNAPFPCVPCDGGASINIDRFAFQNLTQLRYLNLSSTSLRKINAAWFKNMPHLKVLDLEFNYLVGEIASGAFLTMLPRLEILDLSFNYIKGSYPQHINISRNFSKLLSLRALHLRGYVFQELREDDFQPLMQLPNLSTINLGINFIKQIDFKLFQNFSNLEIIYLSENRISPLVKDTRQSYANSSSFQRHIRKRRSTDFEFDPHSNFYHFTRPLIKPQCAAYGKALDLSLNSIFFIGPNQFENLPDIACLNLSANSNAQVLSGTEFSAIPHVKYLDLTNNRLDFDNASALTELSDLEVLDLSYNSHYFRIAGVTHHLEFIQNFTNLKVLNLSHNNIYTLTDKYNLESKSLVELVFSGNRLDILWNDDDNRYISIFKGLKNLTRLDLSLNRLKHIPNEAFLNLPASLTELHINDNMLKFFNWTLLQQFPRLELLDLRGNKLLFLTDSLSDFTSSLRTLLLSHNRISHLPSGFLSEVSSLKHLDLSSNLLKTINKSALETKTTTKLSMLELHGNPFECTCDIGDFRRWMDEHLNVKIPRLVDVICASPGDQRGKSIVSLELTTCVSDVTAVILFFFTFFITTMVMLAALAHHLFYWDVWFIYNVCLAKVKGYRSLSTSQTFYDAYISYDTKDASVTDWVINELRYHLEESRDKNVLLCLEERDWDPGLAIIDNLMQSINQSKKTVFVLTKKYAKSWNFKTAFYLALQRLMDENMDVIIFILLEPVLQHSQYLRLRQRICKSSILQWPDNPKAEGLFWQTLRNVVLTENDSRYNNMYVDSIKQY
Method in brief: as §1

SMILES: CC(C)c1c(-c2ccc(=O)n(C)c2)[nH]c2ccc(C3CCN(C4COC4)CC3)cc12 [Example 175, 5-(3-isopropyl-5-(1-(oxetan-3-yl)piperidin-4-yl)-1H-indol-2-yl)-1-methylpyridin-2(1H)-one]
- IC50 [1]: 275 nM
- IC50 [2]: 15500 nM
- IC50 [3]: 87.5 nM

SMILES: COc1cc(-c2[nH]c3ccc(C4CCN(C(=O)CN(C)C)CC4)cc3c2C(C)C)cn(C)c1=O [Example 286, 5-(5-(1-(dimethylglycyl)piperidin-4-yl)-3-isopropyl-1H-indol-2-yl)-3-methoxy-1-methylpyridin-2(1H)-one]
- IC50 [1]: 5 nM
- IC50 [2]: 289 nM
- IC50 [3]: 5.6 nM

SMILES: CC(C)c1c(-c2cc(F)c(=O)n(C)c2)[nH]c2ccc(C3CCNCC3)cc12 [Example 13, 3-fluoro-5-(3-isopropyl-5-(piperidin-4-yl)-1H-indol-2-yl)-1-methylpyridin-2(1H)-one]
- IC50 [1]: 18.2 nM
- IC50 [2]: 593 nM
- IC50 [3]: 33.9 nM

SMILES: CCn1cc(-c2[nH]c3ccc(C4CCN(CC(=O)NC)CC4)cc3c2C(C)C)cc(C)c1=O [Example 132, 2-(4-(2-(1-ethyl-5-methyl-6-oxo-1,6-dihydropyridin-3-yl)-3-isopropyl-1H-indol-5-yl)piperidin-1-yl)-N-methylacetamide]
- IC50 [1]: 9 nM
- IC50 [2]: 25500 nM
- IC50 [3]: 15.1 nM

SMILES: Cc1nc(-c2[nH]c3ccc(C4CCNCC4)cc3c2C(C)C)cn(C)c1=O [Example 12, 5-(3-isopropyl-5-(piperidin-4-yl)-1H-indol-2-yl)-1,3-dimethylpyrazin-2(1H)-one]
- IC50 [1]: 24.7 nM
- IC50 [2]: 5230 nM
- IC50 [3]: 29 nM

SMILES: Cc1cc(-c2[nH]c3ccc(C4CCN(C)CC4)cc3c2C(C)C)cn(CC(F)F)c1=O [Example 266, 1-(2,2-difluoroethyl)-5-(3-isopropyl-5-(1-methylpiperidin-4-yl)-1H-indol-2-yl)-3-methylpyridin-2(1H)-one]
- IC50 [1]: 11.6 nM
- IC50 [2]: 4480 nM
- IC50 [3]: 15.8 nM

SMILES: Cc1cc(-c2[nH]c3ccc(C4CCNCC4)cc3c2C(C)C)cn(CC(F)(F)F)c1=O [Example 45, 5-(3-isopropyl-5-(piperidin-4-yl)-1H-indol-2-yl)-3-methyl-1-(2,2,2-trifluoroethyl)pyridin-2(1H)-one]
- IC50 [1]: 12.9 nM
- IC50 [2]: 4670 nM
- IC50 [3]: 48.4 nM

SMILES: Cc1cc(-c2[nH]c3ccc(C4CCN(C5COC5)CC4)cc3c2C(C)C)c(C)n(C)c1=O [Example 211, 5-(3-isopropyl-5-(1-(oxetan-3-yl)piperidin-4-yl)-1H-indol-2-yl)-1,3,6-trimethylpyridin-2(1H)-one]
- IC50 [1]: 34.6 nM
- IC50 [2]: ≥ 50000 nM
- IC50 [3]: 17.1 nM

SMILES: COCCn1cc(-c2[nH]c3ccc(C4CCN(CC(C)C)CC4)cc3c2C(C)C)cc(C)c1=O [Example 109, 5-(5-(1-isobutylpiperidin-4-yl)-3-isopropyl-1H-indol-2-yl)-1-(2-methoxyethyl)-3-methylpyridin-2(1H)-one]
- IC50 [1]: 13 nM
- IC50 [2]: 5310 nM
- IC50 [3]: 9.7 nM

SMILES: CCc1cc(-c2[nH]c3ccc(C4CCNCC4)cc3c2C(C)C)c(C)n(CC)c1=O [Example 35, 1,3-diethyl-5-(3-isopropyl-5-(piperidin-4-yl)-1H-indol-2-yl)-6-methylpyridin-2(1H)-one]
- IC50 [1]: 60 nM
- IC50 [2]: 574 nM
- IC50 [3]: 6.8 nM

SMILES: Cc1cc(-c2[nH]c3ccc(C4CCN(Cc5ncnn5C)CC4)cc3c2C(C)C)cn(C)c1=O [Example 198, 5-(3-isopropyl-5-(1-((1-methyl-1H-1,2,4-triazol-5-yl)methyl)piperidin-4-yl)-1H-indol-2-yl)-1,3-dimethylpyridin-2(1H)-one]
- IC50 [1]: 9.1 nM
- IC50 [2]: ≥ 50000 nM
- IC50 [3]: 13.4 nM

SMILES: CC(C)c1c(-c2cc(-c3cccc(C#N)c3)c(=O)n(C)c2)[nH]c2ccc(C3CCNCC3)cc12 [Example 56, 3-(5-(3-isopropyl-5-(piperidin-4-yl)-1H-indol-2-yl)-1-methyl-2-oxo-1,2-dihydropyridin-3-yl)benzonitrile]
- IC50 [1]: 13.7 nM
- IC50 [2]: 408 nM
- IC50 [3]: 49 nM

From patent US11447466B2, “Substituted indole compounds useful as inhibitors of TLR7/8/9” (BRISTOL-MYERS SQUIBB COMPANY, priority 2017, dated 2022)
